Several values for one entry are separate records, joined by “and”; a condition that tells them apart may be missing. Identical values can stand only once. Toxic doses and inconclusive results are not listed. How the source made its calls: active means survival T/C of 150% or more; inactive means T/C below 125% in these data.
Test system: CD2F1 mice, L1210 leukemia ip, survival T/C
Experiment: NCI In Vivo Anticancer Drug Screen. Data for tumor model L1210 Leukemia (intraperitoneal) in CD2F1 (CDF1) mice
Settings: higher = longer survival
In short: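 Each value reflects a quotient of treated over vehicle control outcomes in mice with a transplanted tumor.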

[1] = endpoint: mean survival time, dose: 100.0 mg/kg/injection, schedule: Q04DX003 (ip), vehicle: saline with Tween-80
[2] = endpoint: mean survival time, dose: 200.0 mg/kg/injection, schedule: Q04DX003 (ip), vehicle: saline with Tween-80
[3] = endpoint: mean survival time, dose: 100.0 mg/kg/injection, schedule: Q01DX009 (ip), vehicle: saline with Tween-80
[4] = endpoint: mean survival time, dose: 200.0 mg/kg/injection, schedule: Q01DX009 (ip), vehicle: saline with Tween-80
[5] = endpoint: mean survival time, dose: 400.0 mg/kg/injection, schedule: Q01DX009 (ip), vehicle: saline with Tween-80
[6] = endpoint: mean survival time, dose: 100.0 mg/kg/injection, schedule: Q01DX001 (ip), vehicle: saline with Tween-80
[7] = endpoint: mean survival time, dose: 50.0 mg/kg/injection, schedule: Q01DX009 (ip), vehicle: saline with Tween-80

Measured: T/C

Nc1nc(N)c(-c2ccc(Cl)cc2)c(CNc2cccc([N+](=O)[O-])c2)n1
inactive: endpoint: mean survival time, dose: 100.0 mg/kg/injection, schedule: Q01DX001 (ip), vehicle: other 95 % of control | endpoint: mean survival time, dose: 200.0 mg/kg/injection, schedule: Q01DX001 (ip), vehicle: other 94 % of control | endpoint: mean survival time, dose: 400.0 mg/kg/injection, schedule: Q01DX001 (ip), vehicle: other 90 % of control

COc1cc(/C=C2\C(=O)NC(=O)N(c3ccccc3)C2=O)cc(OC)c1OC
inactive: [1] 100 % of control | [2] 100 % of control

CC(C)(C)C(=O)CC(=O)C(C)(C)C.CC(C)(C)C(=O)CC(=O)C(C)(C)C.CC(C)(C)C(=O)CC(=O)C(C)(C)C.[Fe]
inactive: [3] 98 % of control | [1] 100 % of control | [4] 97 % of control | [2] 96 % of control | [5] 95 % of control | endpoint: mean survival time, dose: 400.0 mg/kg/injection, schedule: Q04DX003 (ip), vehicle: saline with Tween-80 91 % of control

O=[N+]([O-])c1ccc(Cc2ncnc3c2ncn3C2OC(CO)C(O)C2O)cc1 (configuration not stated)
inactive: endpoint: mean survival time, dose: 12.5 mg/kg/injection, schedule: Q01DX005 (ip), vehicle: distilled water + Tween-80 103 % of control | endpoint: mean survival time, dose: 25.0 mg/kg/injection, schedule: Q01DX005 (ip), vehicle: distilled water + Tween-80 105 % of control | endpoint: mean survival time, dose: 50.0 mg/kg/injection, schedule: Q01DX005 (ip), vehicle: distilled water + Tween-80 108 % of control | endpoint: mean survival time, dose: 100.0 mg/kg/injection, schedule: Q01DX005 (ip), vehicle: distilled water + Tween-80 120 % of control | endpoint: mean survival time, dose: 200.0 mg/kg/injection, schedule: Q01DX005 (ip), vehicle: distilled water + Tween-80 120 % of control

CC(C)(C)SC(=O)C1(C)OC1c1ccc([N+](=O)[O-])cc1 (configuration not stated)
inactive: endpoint: mean survival time, dose: 100.0 mg/kg/injection, schedule: Q01DX001 (ip), vehicle: Klucel (hydroxypropylcellulose) (HPC) 97 % of control | endpoint: mean survival time, dose: 200.0 mg/kg/injection, schedule: Q01DX001 (ip), vehicle: Klucel (hydroxypropylcellulose) (HPC) 94 % of control | endpoint: mean survival time, dose: 400.0 mg/kg/injection, schedule: Q01DX001 (ip), vehicle: Klucel (hydroxypropylcellulose) (HPC) 97 % of control

ClCc1ccc(Cl)cc1
inactive: endpoint: mean survival time, dose: 25.0 mg/kg/injection, schedule: Q01DX001 (ip), vehicle: saline with Tween-80 102 % of control | endpoint: mean survival time, dose: 50.0 mg/kg/injection, schedule: Q01DX001 (ip), vehicle: saline with Tween-80 106 % of control | [6] 92 % of control and 102 % of control

CCC(=O)Oc1ccc(C2N(Cc3ccc(N(C)C)cc3)CCCN2Cc2ccc(N(C)C)cc2)cc1
inactive: [1] 103 % of control | [4] 89 % of control | [2] 92 % of control

CCC(CO)C(C)C (configuration not stated)
inactive: [1] 97 % of control | [2] 100 % of control

N#Cc1cc(Cl)c(OCc2ccccc2)c(Cl)c1
inactive: [6] 87 % of control | endpoint: mean survival time, dose: 400.0 mg/kg/injection, schedule: Q01DX001 (ip), vehicle: saline with Tween-80 101 % of control

COc1ccc(NC(=O)Nc2ccccc2Cl)c(OC)c1
inactive: endpoint: mean survival time, dose: 25.0 mg/kg/injection, schedule: Q04DX002 (ip), vehicle: saline with Tween-80 94 % of control | endpoint: mean survival time, dose: 50.0 mg/kg/injection, schedule: Q04DX002 (ip), vehicle: saline with Tween-80 87 % of control | endpoint: mean survival time, dose: 100.0 mg/kg/injection, schedule: Q04DX002 (ip), vehicle: saline with Tween-80 102 % of control

C[n+]1ccccc1/C=C/c1cccc([N+](=O)[O-])c1
inactive: endpoint: mean survival time, dose: 5.0 mg/kg/injection, schedule: Q01DX009 (ip), vehicle: saline with Tween-80 100 % of control | endpoint: mean survival time, dose: 10.0 mg/kg/injection, schedule: Q01DX009 (ip), vehicle: saline with Tween-80 105 % of control | endpoint: mean survival time, dose: 20.0 mg/kg/injection, schedule: Q01DX009 (ip), vehicle: saline with Tween-80 107 % of control

CC(=O)OCC1OC([n+]2c([O-])cc(=O)n3ccsc32)C(OC(C)=O)C1OC(C)=O (configuration not stated)
inactive: endpoint: median survival time, dose: 11.25 mg/kg/injection, schedule: Q01DX005 (ip), vehicle: water 101 % of control | endpoint: median survival time, dose: 12.5 mg/kg/injection, schedule: Q01DX005 (ip), vehicle: distilled water + Tween-80 103 % of control | endpoint: median survival time, dose: 22.5 mg/kg/injection, schedule: Q01DX005 (ip), vehicle: water 100 % of control | endpoint: median survival time, dose: 25.0 mg/kg/injection, schedule: Q01DX005 (ip), vehicle: distilled water + Tween-80 98 % of control | endpoint: median survival time, dose: 45.0 mg/kg/injection, schedule: Q01DX005 (ip), vehicle: water 108 % of control | endpoint: median survival time, dose: 50.0 mg/kg/injection, schedule: Q01DX005 (ip), vehicle: distilled water + Tween-80 98 % of control | endpoint: median survival time, dose: 90.0 mg/kg/injection, schedule: Q01DX005 (ip), vehicle: water 114 % of control | endpoint: median survival time, dose: 100.0 mg/kg/injection, schedule: Q01DX005 (ip), vehicle: distilled water + Tween-80 102 % of control | endpoint: median survival time, dose: 180.0 mg/kg/injection, schedule: Q01DX005 (ip), vehicle: water 101 % of control | endpoint: median survival time, dose: 200.0 mg/kg/injection, schedule: Q01DX005 (ip), vehicle: distilled water + Tween-80 95 % of control

N.O=S(=O)(O)O.[Al]
inactive: [7] 97 % of control | [3] 91 % of control | [1] 94 % of control | [4] 96 % of control | [2] 99 % of control

CCOC(=O)/C(C#N)=N/O
inactive: endpoint: mean survival time, dose: 75.0 mg/kg/injection, schedule: Q01DX001 (ip), vehicle: saline 100 % of control

CC(=O)NC(C=O)OCC=O (configuration not stated)
inactive: endpoint: median survival time, dose: 6.0 mg/kg/injection, schedule: Q01DX009 (ip), vehicle: water 100 % of control | endpoint: median survival time, dose: 6.25 mg/kg/injection, schedule: Q01DX009 (ip), vehicle: water 105 % of control | endpoint: median survival time, dose: 12.0 mg/kg/injection, schedule: Q01DX009 (ip), vehicle: water 103 % of control | endpoint: median survival time, dose: 12.5 mg/kg/injection, schedule: Q01DX009 (ip), vehicle: water 105 % of control | endpoint: median survival time, dose: 25.0 mg/kg/injection, schedule: Q01DX009 (ip), vehicle: water 105 % of control and 108 % of control | endpoint: median survival time, dose: 50.0 mg/kg/injection, schedule: Q01DX009 (ip), vehicle: water 102 % of control and 108 % of control | endpoint: median survival time, dose: 100.0 mg/kg/injection, schedule: Q01DX009 (ip), vehicle: water 116 % of control and 111 % of control | endpoint: median survival time, dose: 200.0 mg/kg/injection, schedule: Q01DX009 (ip), vehicle: water 115 % of control and 108 % of control

Cc1c(N)c(=O)n(-c2ccccc2)n1C
inactive: endpoint: mean survival time, dose: 100.0 mg/kg/injection, schedule: Q04DX003 (ip), vehicle: saline 97 % of control | endpoint: mean survival time, dose: 200.0 mg/kg/injection, schedule: Q04DX003 (ip), vehicle: saline 103 % of control | endpoint: mean survival time, dose: 400.0 mg/kg/injection, schedule: Q04DX003 (ip), vehicle: saline 101 % of control

CCN=C(NCC)S(=O)O
inactive: endpoint: mean survival time, dose: 100.0 mg/kg/injection, schedule: Q01DX009 (ip), vehicle: saline 90 % of control | endpoint: mean survival time, dose: 200.0 mg/kg/injection, schedule: Q01DX009 (ip), vehicle: saline 97 % of control | endpoint: mean survival time, dose: 400.0 mg/kg/injection, schedule: Q01DX009 (ip), vehicle: saline 103 % of control

C=C1C(=O)O[C@@H]2C[C@@H](C)[C@@H]3[C@@H](OC4OC(COC(C)=O)C(O)C(O)C4O)CC(=O)[C@@]3(C)C[C@H]12 (some centres not stated)
inactive: endpoint: mean survival time, dose: 35.0 mg/kg/injection, schedule: Q01DX009 (ip), vehicle: saline 108 % of control | endpoint: mean survival time, dose: 50.0 mg/kg/injection, schedule: Q01DX009 (ip), vehicle: saline 95 % of control | endpoint: mean survival time, dose: 75.0 mg/kg/injection, schedule: Q01DX009 (ip), vehicle: saline 102 % of control

Cc1cc(C)cc(NCCC#N)c1
inactive: endpoint: mean survival time, dose: 100.0 mg/kg/injection, schedule: Q01DX009 (ip), vehicle: other 98 % of control | endpoint: mean survival time, dose: 100.0 mg/kg/injection, schedule: Q04DX003 (ip), vehicle: other 106 % of control | endpoint: mean survival time, dose: 200.0 mg/kg/injection, schedule: Q01DX009 (ip), vehicle: other 98 % of control | endpoint: mean survival time, dose: 200.0 mg/kg/injection, schedule: Q04DX003 (ip), vehicle: other 100 % of control | endpoint: mean survival time, dose: 400.0 mg/kg/injection, schedule: Q01DX009 (ip), vehicle: other 98 % of control | endpoint: mean survival time, dose: 400.0 mg/kg/injection, schedule: Q04DX003 (ip), vehicle: other 98 % of control

c1ccc(-n2c3ccccc3c3ccccc32)cc1
inactive: [3] 98 % of control | [4] 98 % of control | [5] 95 % of control

O=C1Nc2ccccc2/C1=C\c1ccccc1O
inactive: endpoint: mean survival time, dose: 50.0 mg/kg/injection, schedule: Q01DX009 (ip), vehicle: Klucel (hydroxypropylcellulose) (HPC) 93 % of control | endpoint: mean survival time, dose: 100.0 mg/kg/injection, schedule: Q01DX009 (ip), vehicle: Klucel (hydroxypropylcellulose) (HPC) 87 % of control | endpoint: mean survival time, dose: 200.0 mg/kg/injection, schedule: Q01DX009 (ip), vehicle: Klucel (hydroxypropylcellulose) (HPC) 96 % of control | endpoint: mean survival time, dose: 400.0 mg/kg/injection, schedule: Q01DX009 (ip), vehicle: Klucel (hydroxypropylcellulose) (HPC) 96 % of control

Cc1[nH]c(C(=O)NN)c(C)c1C(=O)NN
inactive: endpoint: mean survival time, dose: 25.0 mg/kg/injection, schedule: Q01DX009 (ip), vehicle: saline with Tween-80 111 % of control | [7] 100 % of control | [3] 103 % of control | [1] 98 % of control

S=C1NC(/C=C/c2ccccc2)Nc2ccccc21 (configuration not stated)
inactive: [1] 91 % of control | [2] 87 % of control
